# Reference: PubChem BioAssay AID1845197 (Molecular Pharmacology Branch, DTP, NCI, 2023)
# System: 349418-098-R tumor spheroid viability
# Test: Anticancer human tumor 349418-098-R patient-derived lung adenocarcinoma cell line growth inhibition
# Conditions: spheroids with HUVEC and MSC; for IC50: curve of first compound; for viability, T/C: stronger effect = lower value
# Summary of the method: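 Single agents and combinations were tested on spheroids built from tumor cells plus HUVEC and hMSC, at half-log dilutions starting at or near clinical Cmax, else 10 microM; final DMSO 0.25% (v/v).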
# 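Note: spheroids exposed to compound for 7 days before measurement.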
# 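Throughout, for viability, T/C: percent of vehicle control viability with 100% = DMSO-treated spheroids.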
structure (smiles),measurement,setting,value
Cn1ncnc1[C@H]1c2n[nH]c(=O)c3cc(F)cc(c23)N[C@@H]1c1ccc(F)cc1 + COc1cc2c(cc1O)CCNC21CSC2c3c(OC(C)=O)c(C)c4c(c3C(COC1=O)N1C(O)C3Cc5cc(C)c(OC)c(O)c5C(C21)N3C)OCO4,IC50,second compound 30 pM,1.64 µM
same,IC50,second compound 94.9 pM,0.956 µM
same,IC50,second compound 0.0003 µM,0.107 µM
same,IC50,second compound 0.000949 µM,< 0.00949 µM
same,IC50,second compound 0.003 µM,< 0.00949 µM
same,"viability, T/C","second compound 30 pM, first compound 0.00949 µM",87.2%
same,"viability, T/C","second compound 30 pM, first compound 0.03 µM",97.2%
same,"viability, T/C","second compound 30 pM, first compound 0.0949 µM",88.8%
same,"viability, T/C","second compound 30 pM, first compound 0.3 µM",93.5%
same,"viability, T/C","second compound 30 pM, first compound 0.949 µM",86.8%
same,"viability, T/C","second compound 30 pM, first compound 3 µM",9.75%
same,"viability, T/C","second compound 94.9 pM, first compound 0.00949 µM",93.2%
same,"viability, T/C","second compound 94.9 pM, first compound 0.03 µM",89.6%
same,"viability, T/C","second compound 94.9 pM, first compound 0.0949 µM",85.6%
same,"viability, T/C","second compound 94.9 pM, first compound 0.3 µM",94.8%
same,"viability, T/C","second compound 94.9 pM, first compound 0.949 µM",50.3%
same,"viability, T/C","second compound 94.9 pM, first compound 3 µM",4.92%
same,"viability, T/C","second compound 0.0003 µM, first compound 0.00949 µM",66.4%
same,"viability, T/C","second compound 0.0003 µM, first compound 0.03 µM",68.5%
same,"viability, T/C","second compound 0.0003 µM, first compound 0.0949 µM",47.8%
same,"viability, T/C","second compound 0.0003 µM, first compound 0.3 µM",34.9%
same,"viability, T/C","second compound 0.0003 µM, first compound 0.949 µM",11.5%
same,"viability, T/C","second compound 0.0003 µM, first compound 3 µM",2.39%
same,"viability, T/C","second compound 0.000949 µM, first compound 0.00949 µM",0.87%
same,"viability, T/C","second compound 0.000949 µM, first compound 0.03 µM",0.43%
same,"viability, T/C","second compound 0.000949 µM, first compound 0.0949 µM",0.53%
same,"viability, T/C","second compound 0.000949 µM, first compound 0.3 µM",0.21%
same,"viability, T/C","second compound 0.000949 µM, first compound 0.949 µM",0.13%
same,"viability, T/C","second compound 0.000949 µM, first compound 3 µM",0.19%
same,"viability, T/C","second compound 0.003 µM, first compound 0.00949 µM",1.57%
same,"viability, T/C","second compound 0.003 µM, first compound 0.03 µM",1.54%
same,"viability, T/C","second compound 0.003 µM, first compound 0.0949 µM",1.41%
same,"viability, T/C","second compound 0.003 µM, first compound 0.3 µM",1.35%
same,"viability, T/C","second compound 0.003 µM, first compound 0.949 µM",2.21%
same,"viability, T/C","second compound 0.003 µM, first compound 3 µM",3.32%
[2H]c1nc(C)nc([2H])c1-c1cc(NC[C@@H](C)c2cccc3c(C(=O)NC)ccnc23)ncn1 + COc1cc2c(cc1O)CCNC21CSC2c3c(OC(C)=O)c(C)c4c(c3C(COC1=O)N1C(O)C3Cc5cc(C)c(OC)c(O)c5C(C21)N3C)OCO4,IC50,second compound 30 pM,> 10 µM
same,IC50,second compound 94.9 pM,> 10 µM
same,IC50,second compound 0.0003 µM,> 10 µM
same,IC50,second compound 0.000949 µM,< 0.0316 µM
same,IC50,second compound 0.003 µM,< 0.0316 µM
same,"viability, T/C","second compound 30 pM, first compound 0.0316 µM",110%
same,"viability, T/C","second compound 30 pM, first compound 0.1 µM",98.4%
same,"viability, T/C","second compound 30 pM, first compound 0.316 µM",111%
same,"viability, T/C","second compound 30 pM, first compound 1 µM",107%
same,"viability, T/C","second compound 30 pM, first compound 3.16 µM",98.2%
same,"viability, T/C","second compound 30 pM, first compound 10 µM",105%
same,"viability, T/C","second compound 94.9 pM, first compound 0.0316 µM",99%
same,"viability, T/C","second compound 94.9 pM, first compound 0.1 µM",99.5%
same,"viability, T/C","second compound 94.9 pM, first compound 0.316 µM",94.2%
same,"viability, T/C","second compound 94.9 pM, first compound 1 µM",107%
same,"viability, T/C","second compound 94.9 pM, first compound 3.16 µM",103%
same,"viability, T/C","second compound 94.9 pM, first compound 10 µM",98.7%
same,"viability, T/C","second compound 0.0003 µM, first compound 0.0316 µM",96.1%
same,"viability, T/C","second compound 0.0003 µM, first compound 0.1 µM",93.7%
same,"viability, T/C","second compound 0.0003 µM, first compound 0.316 µM",92.7%
same,"viability, T/C","second compound 0.0003 µM, first compound 1 µM",93.6%
same,"viability, T/C","second compound 0.0003 µM, first compound 3.16 µM",88%
same,"viability, T/C","second compound 0.0003 µM, first compound 10 µM",86.2%
same,"viability, T/C","second compound 0.000949 µM, first compound 0.0316 µM",0.58%
same,"viability, T/C","second compound 0.000949 µM, first compound 0.1 µM",0.76%
same,"viability, T/C","second compound 0.000949 µM, first compound 0.316 µM",0.46%
same,"viability, T/C","second compound 0.000949 µM, first compound 1 µM",0.58%
same,"viability, T/C","second compound 0.000949 µM, first compound 3.16 µM",0.39%
same,"viability, T/C","second compound 0.000949 µM, first compound 10 µM",0.49%
same,"viability, T/C","second compound 0.003 µM, first compound 0.0316 µM",1.52%
same,"viability, T/C","second compound 0.003 µM, first compound 0.1 µM",1.57%
same,"viability, T/C","second compound 0.003 µM, first compound 0.316 µM",1.35%
same,"viability, T/C","second compound 0.003 µM, first compound 1 µM",1.29%
same,"viability, T/C","second compound 0.003 µM, first compound 3.16 µM",1.6%
same,"viability, T/C","second compound 0.003 µM, first compound 10 µM",2.34%
